Measured values taken from patent publication US10577349B2 (Sanford Burnham Prebys Medical Discovery Institute, priority 2015, dated 2020).

Key:
[1] = molecular target: EmCV Cap-dependent translation; assay: In vitro translation assay, FF-EmCV-Ren construct, cap-dependent (FF luciferase); assay type: biochemical, rabbit reticulocyte lysates
Description: (§1) The bicistronic dual-reporter constructs that contain the firefly luciferase (FF) sequence, followed by the (encephalomyocarditis virus) EmCV and Hepatitis C virus (HCV) IRES, respectively, and the Renilla reniformis (Ren) luciferase sequence, has been previously described (Bordeleau Me., et al. Functional characterization of IRESes by an inhibitor of the RNA helicase eIF4A. Nature chemical biology. 2006; 2:213-20). For measurement of translation from the FF-EmCV-Ren and FF-HCV-Ren constructs, rabbit reticulocyte lysates (RRL) (Life Technologies, Carlsbad, Calif., USA) and the Dual-Glo (Promega, Madison, Wis., USA) read-outs were chosen. Two μl rabbit reticulocyte lysates mixed with Translation Mix 20× (-Met) and Translation Mix 20× (-Leu) in a ratio of 1:1 were pre-incubated with test compounds in 1536-well plates for 1 h at room temperature. Then, translation was started by adding 0.1 μg RNA per well and incubated for 2 h at 30° C. After a short chill phase, 2.5 μl Dual-Glo reagent 1 was added to each well and incubated for 10 min before reading the FF luciferase activity with the ViewLux uHTS Microplate Imager (Perkin Elmer, Waltham, Mass., USA). Directly after, 2.5 μl Dual-Glo reagent 2 was dispensed to each well and incubated at room temperature for 10 min before reading the Ren luciferase activity on the ViewLux. To exclude the possibility that test compounds interfere with any of the luciferase activities, a counter assay was performed in which the compounds were added after the completion of the in vitro translation.

[2] = molecular target: HCV cap-dependent translation; assay: In vitro translation assay, FF-HCV-Ren construct, cap-dependent (FF luciferase); assay type: biochemical, rabbit reticulocyte lysates
Description: as §1

[3] = molecular target: EmCV Cap-independent translation; assay: In vitro translation assay, FF-EmCV-Ren construct, cap-independent (Ren luciferase); assay type: biochemical, rabbit reticulocyte lysates
Description: as §1

[4] = molecular target: HCV cap-independent translation; assay: In vitro translation assay, FF-HCV-Ren construct, cap-independent (Ren luciferase); assay type: biochemical, rabbit reticulocyte lysates
Description: as §1

A375 = assay: 48 h Cytotoxicity A375; assay type: cell-based; details: Homo sapiens, A-375

Compound	IC50 [1] [µM]	IC50 [2] [µM]	IC50 [3] [µM]	IC50 [4] [µM]	IC50 (A375) [µM]
O=C(/C=C/c1ccccc1)c1c(-c2cccs2)c2cc(Cl)ccc2[nH]c1=O [Compound 10]	2 to 10	10 to 20	2 to 10	2 to 10	> 20
O=C(/C=C/c1ccsc1)c1c(-c2ccccc2)c2cc(Cl)ccc2[nH]c1=O [Compound 27, 6-Chloro-4-phenyl-3-(3-thiophen-3-yl-acryloyl)-1H-quinolin-2-one]	2 to 10	2 to 10	2 to 10	2 to 10	2 to 10
COc1cncc(-c2c(C(=O)/C=C/c3ccccn3)c(=O)[nH]c3ccc(Cl)cc23)c1 [Compound 98, 3-((2E)-3-(2-pyridyl)prop-2-enoyl)-6-chloro-4-(5-methoxy(3-pyridyl))hydroquinolin-2-one]	10 to 20	10 to 20	10 to 20	10 to 20	2 to 10
O=C(/C=C/c1ccccc1)c1c(-c2ccccc2)c2cc([N+](=O)[O-])ccc2[nH]c1=O [Compound 16, 6-Nitro-4-phenyl-3-(3-phenyl-acryloyl)-1H-quinolin-2-one]	2 to 10	10 to 20	2 to 10	2 to 10	2 to 10
O=C(/C(Br)=C\c1cncc(F)c1)c1c(-c2ccccc2)c2cc(Cl)ccc2[nH]c1=O [Compound 111, 3-[(2E)-2-bromo-3-(5-fluoro(3-pyridyl))prop-2-enoyl]-6-chloro-4-phenylhydroquinolin-2-one]	2 to 10	2 to 10	2 to 10	2 to 10	2 to 10
O=C(/C=C/c1ccccn1)c1c(-c2ccc(F)cc2)c2cc(Cl)ccc2[nH]c1=O [Compound 78, (E)-6-Chloro-4-(4-fluoro-phenyl)-3-(3-pyridin-2-yl-acryloyl)-1H-quinolin-2-one]	2 to 10	2 to 10	2 to 10	2 to 10	< 2
COc1ccc2[nH]c(=O)c(C(=O)/C=C/c3nc4ccccc4[nH]3)c(-c3ccccc3)c2c1 [Compound 21, 3-(3-1H-Benzoimidazol-2-yl-acryloyl)-6-methoxy-4-phenyl-1H-quinolin-2-one]	10 to 20	> 20	10 to 20	10 to 20	2 to 10
N#Cc1cncc(-c2c(C(=O)/C=C/c3cncc(F)c3)c(=O)[nH]c3ccc(Cl)cc23)c1 [Compound 105, 5-{3-[(2E)-3-(5-fluoro(3-pyridyl))prop-2-enoyl]-6-chloro-2-oxo-4-hydroquinolyl}pyridine-3-carbonitrile]	10 to 20	10 to 20	10 to 20	10 to 20	2 to 10
O=C(/C=C/c1cc(Br)cs1)c1c(-c2ccccc2)c2cc(Cl)ccc2[nH]c1=O [Compound 46, 3-[3-(4-Bromo-thiophen-2-yl)-acryloyl]-6-chloro-4-phenyl-1H-quinolin-2-one]	2 to 10	2 to 10	2 to 10	2 to 10	2 to 10
COc1cncc(-c2c(C(=O)/C=C/c3cncc(F)c3)c(=O)[nH]c3ccc(Cl)cc23)c1 [Compound 97, 3-[(2E)-3-(5-fluoro(3-pyridyl))prop-2-enoyl]-6-chloro-4-(5-methoxy(3-pyridyl))hydroquinolin-2-one]	2 to 10	10 to 20	2 to 10	2 to 10	2 to 10
Cc1ccnc(-c2c(C(=O)/C=C/c3ccccn3)c(=O)[nH]c3ccc(Cl)cc23)c1 [Compound 94, 3-((2E)-3-(2-pyridyl)prop-2-enoyl)-6-chloro-4-(4-methyl(2-pyridyl))hydroquinolin-2-one]	> 20	> 20	> 20	> 20	2 to 10
Cc1ccc(-c2c(C(=O)/C=C/c3cncc(F)c3)c(=O)[nH]c3ccc(Cl)cc23)cc1 [Compound 85, 3-[(2E)-3-(5-fluoro(3-pyridyl))prop-2-enoyl]-6-chloro-4-(4-methylphenyl)hydroquinolin-2-one]	2 to 10	2 to 10	2 to 10	2 to 10	< 2
O=C(/C=C/c1cncc(F)c1)c1c(-c2ccc(F)cc2)c2cc(Cl)ccc2[nH]c1=O [Compound 77, 3-[(2E)-3-(5-fluoro(3-pyridyl))prop-2-enoyl]-6-chloro-4-(4-fluorophenyl)hydroquinolin-2-one]	2 to 10	2 to 10	2 to 10	2 to 10	< 2
O=C(/C=C/c1cncc(F)c1)c1c(-c2ccc(C(F)(F)F)cc2)c2cc(Cl)ccc2[nH]c1=O [Compound 83, 3-[(2E)-3-(5-fluoro(3-pyridyl))prop-2-enoyl]-6-chloro-4-[4-(trifluoromethyl)phenyl]hydroquinolin-2-one]	2 to 10	2 to 10	2 to 10	2 to 10	2 to 10
O=C(/C=C/c1cncc(F)c1)c1c(-c2cncc(Br)c2)c2cc(Cl)ccc2[nH]c1=O [Compound 103, (E)-4-(5-Bromo-pyridin-3-yl)-6-chloro-3-[3-(5-fluoro-pyridin-3-yl)-acryloyl]-1H-quinolin-2-one]	2 to 10	10 to 20	2 to 10	2 to 10	2 to 10
Cc1ccc2[nH]c(/C=C/C(=O)c3c(-c4ccccc4)c4cc(Cl)cnc4[nH]c3=O)nc2c1 [Compound 114, (E)-6-chloro-3-(3-(5-methyl-1H-benzo[d]imidazol-2-yl)acryloyl)-4-phenyl-1,8-naphthyridin-2(1H)-one]	2 to 10	> 20	10 to 20	10 to 20	2 to 10
O=C(/C=C/c1ccc(Cl)cc1)c1c(-c2ccccc2)c2cc(Cl)ccc2[nH]c1=O [Compound 33, 6-Chloro-3-[3-(4-chloro-phenyl)-acryloyl]-4-phenyl-1H-quinolin-2-one]	2 to 10	2 to 10	2 to 10	2 to 10	2 to 10
O=C(/C=C/c1nc2ccccc2[nH]1)c1c(-c2ccccc2)c2cccnc2[nH]c1=O [Compound 25, 3-(3-1H-Benzoimidazol-2-yl-acryloyl)-4-phenyl-1H-[1,8]naphthyridin-2-one]	10 to 20	10 to 20	10 to 20	> 20	10 to 20
O=C(/C=C/c1nc2ccccc2[nH]1)c1c(-c2ccc(Cl)cc2)c2cc(Cl)ccc2[nH]c1=O [Compound 5, 3-(3-1H-Benzoimidazol-2-yl-acryloyl)-6-chloro-4-(4-chloro-phenyl)-1H-quinolin-2-one]	2 to 10	10 to 20	10 to 20	10 to 20	< 2
CN(C)c1ccc(/C=C/C(=O)c2c(-c3ccccc3)c3cc([N+](=O)[O-])ccc3[nH]c2=O)cc1 [Compound 17, 3-[3-(4-Dimethylamino-phenyl)-acryloyl]-6-nitro-4-phenyl-1H-quinolin-2-one]	> 20	> 20	> 20	> 20	> 20
O=C(/C=C/c1ccc(F)cc1F)c1c(-c2ccccc2)c2cc(Cl)ccc2[nH]c1=O [Compound 41, 6-Chloro-3-[3-(2,4-difluoro-phenyl)-acryloyl]-4-phenyl-1H-quinolin-2-one]	2 to 10	2 to 10	2 to 10	2 to 10	< 2
Cc1ccnc(C#CC(=O)c2c(-c3ccccc3)c3cc(Cl)ccc3[nH]c2=O)c1 [Compound 112, 6-Chloro-3-[3-(4-methyl-pyridin-2-yl)-propynoyl]-4-phenyl-1H-quinolin-2-one]	> 20	> 20	> 20	> 20	> 20
Nc1ccc2[nH]c(=O)c(C(=O)CCc3nc4ccccc4[nH]3)c(-c3ccccc3)c2c1 [Compound 14, 6-Amino-3-(3-1H-benzoimidazol-2-yl-propionyl)-4-phenyl-1H-quinolin-2-one]	> 20	> 20	> 20	> 20	> 20
CCn1c(/C=C/C(=O)c2c(-c3ccccc3)c3cc(Cl)ccc3[nH]c2=O)nc2cc(Cl)c(Cl)cc21 [Compound 64, 6-Chloro-3-[3-(5,6-dichloro-1-ethyl-1H-benzoimidazol-2-yl)-acryloyl]-4-phenyl-1H-quinolin-2-one]	2 to 10	10 to 20	10 to 20	> 20	2 to 10
O=C(/C=C/c1nc2ccccc2[nH]1)c1c(-c2ccccc2)c2cc(F)ccc2[nH]c1=O [Compound 20, 3-(3-1H-Benzoimidazol-2-yl-acryoyl)-6-fluoro-4-phenyl-1H-quinolin-2-one]	10 to 20	10 to 20	> 20	> 20	< 2
